Data reported in US20260158011A1 (Achieve Life Sciences, Inc., priority 2023, published 2026).

Tested on: adult e-cigarette users
Conditions: 12 Weeks, N = 106, Safety Set
From the text: A second measurement consisted of biochemically verified continuous vaping abstinence at any time during treatment, with vaping abstinence at Week 3-6 or Week 6-9 for of cytisinicline treatment vs placebo. 7-day point prevalence rates were compared for vaping abstinence (Week 2 to 12) (FIG. 62). An additional measurement included reduction in daily vaping as measured by cotinine, where cytisinicline treatment vs placebo for a reduction in nicotine vaping using weekly quantitative cotinine levels from Week 2 to Week 12. Safety was assessed by adverse effects and serious adverse effects, considering number, severity, and attribution to study drug.

O=c1cccc2n1C[C@@H]1CNC[C@H]2C1 [cytisine, (−)-Cytisine]
At Least One AE, Events: 123 Events
At Least One AE, subjects: 56 (52.8) n (%)
At Least One Related Serious TEAE: 0 n (%)/Events
At Least One Serious TEAE: 0 n (%)/Events
At Least One TEAE Leading to Dose Reduction, Dose Interrupted or Study Drug Discontinuation: 7 (6.6) n (%)
Subjects with Dose Reduction: 3 (2.8) n (%)
TEAE Abdominal discomfort, subjects %: (0.9) %
TEAE Abdominal discomfort, subjects n: 1 n
TEAE Abnormal dreams, subjects %: (12.3) %
TEAE Abnormal dreams, subjects n: 13 n
TEAE Action Taken With Study Drug: Dose Interrupted, Events: 1 Events
TEAE Action Taken With Study Drug: Dose Interrupted, subjects: 1 (0.9) n (%)
TEAE Action Taken With Study Drug: Dose Not Changed, Events: 101 Events
TEAE Action Taken With Study Drug: Dose Not Changed, subjects: 51 (48.1) n (%)
TEAE Action Taken With Study Drug: Dose Reduced, Events: 3 Events
TEAE Action Taken With Study Drug: Dose Reduced, subjects: 3 (2.8) n (%)
TEAE Action Taken With Study Drug: Drug Withdrawn, Events: 7 Events
TEAE Action Taken With Study Drug: Drug Withdrawn, subjects: 4 (3.8) n (%)
TEAE Action Taken With Study Drug: Not Applicable, Events: 7 Events
TEAE Action Taken With Study Drug: Not Applicable, subjects: 5 (4.7) n (%)
TEAE Agitation, subjects: 0 n (%)
TEAE Akathisia, subjects %: (0.9) %
TEAE Akathisia, subjects n: 1 n
TEAE Alanine aminotransferase increased, subjects: 0 n (%)
TEAE Alveolar osteitis, subjects: 0 n (%)
TEAE Anal fissure, subjects %: (0.9) %
TEAE Anal fissure, subjects n: 1 n
TEAE Animal bite, subjects %: (0.9) %
TEAE Animal bite, subjects n: 1 n
TEAE Anxiety, subjects %: (9.4) %
TEAE Anxiety, subjects n: 10 n
TEAE Aspartate aminotransferase increased, subjects: 0 n (%)
TEAE Attention deficit hyperactivity disorder, subjects %: (0.9) %
TEAE Attention deficit hyperactivity disorder, subjects n: 1 n
TEAE Back pain, subjects %: (0.9) %
TEAE Back pain, subjects n: 1 n
TEAE Bronchitis, subjects %: (1.9) %
TEAE Bronchitis, subjects n: 2 n
TEAE Chlamydial infection, subjects %: (0.9) %
TEAE Chlamydial infection, subjects n: 1 n
TEAE Concussion, subjects: 0 n (%)
TEAE Constipation, subjects %: (1.9) %
TEAE Constipation, subjects n: 2 n
TEAE Decreased appetite, subjects %: (0.9) %
TEAE Decreased appetite, subjects n: 1 n
TEAE Depressed mood, subjects: 0 n (%)
TEAE Depression, subjects: 0 n (%)
TEAE Dermatitis contact, subjects %: (0.9) %
TEAE Dermatitis contact, subjects n: 1 n
TEAE Disturbance in attention, subjects %: (0.9) %
TEAE Disturbance in attention, subjects n: 1 n
TEAE Dizziness, subjects %: (2.8) %
TEAE Dizziness, subjects n: 3 n
TEAE Dry mouth, subjects %: (1.9) %
TEAE Dry mouth, subjects n: 2 n
TEAE Dyspepsia, subjects %: (0.9) %
TEAE Dyspepsia, subjects n: 1 n
TEAE Ear infection, subjects: 0 n (%)
TEAE Eye pruritus, subjects %: (0.9) %
TEAE Eye pruritus, subjects n: 1 n
TEAE Fatigue, subjects %: (5.7) %
TEAE Fatigue, subjects n: 6 n
TEAE Female sterilisation, subjects %: (0.9) %
TEAE Female sterilisation, subjects n: 1 n
TEAE Gastroenteritis norovirus, subjects: 0 n (%)
TEAE Gastroenteritis viral, subjects: 0 n (%)
TEAE Gastroenteritis, subjects %: (1.9) %
TEAE Gastroenteritis, subjects n: 2 n
TEAE Gout, subjects %: (0.9) %
TEAE Gout, subjects n: 1 n
TEAE Headache, subjects %: (6.6) %
TEAE Headache, subjects n: 7 n
TEAE Hot flush, subjects %: (0.9) %
TEAE Hot flush, subjects n: 1 n
TEAE Hyperhidrosis, subjects: 0 n (%)
TEAE Increased appetite, subjects %: (0.9) %
TEAE Increased appetite, subjects n: 1 n
TEAE Insomnia, subjects %: (10.4) %
TEAE Insomnia, subjects n: 11 n
TEAE Irritability, subjects %: (2.8) %
TEAE Irritability, subjects n: 3 n
TEAE Leading to Dose Reduction, Dose Interrupted or Study Drug Discontinuation: Abdominal discomfort: 1 (0.9) n (%)
TEAE Leading to Dose Reduction, Dose Interrupted or Study Drug Discontinuation: Abnormal dreams: 1 (0.9) n (%)
TEAE Leading to Dose Reduction, Dose Interrupted or Study Drug Discontinuation: Anal fissure: 1 (0.9) n (%)
TEAE Leading to Dose Reduction, Dose Interrupted or Study Drug Discontinuation: Anxiety: 2 (1.9) n (%)
TEAE Leading to Dose Reduction, Dose Interrupted or Study Drug Discontinuation: Depression: 0 n (%)
TEAE Leading to Dose Reduction, Dose Interrupted or Study Drug Discontinuation: Fatigue: 1 (0.9) n (%)
TEAE Leading to Dose Reduction, Dose Interrupted or Study Drug Discontinuation: Headache: 0 n (%)
TEAE Leading to Dose Reduction, Dose Interrupted or Study Drug Discontinuation: Insomnia: 2 (1.9) n (%)
TEAE Leading to Dose Reduction, Dose Interrupted or Study Drug Discontinuation: Irritability: 1 (0.9) n (%)
TEAE Leading to Dose Reduction, Dose Interrupted or Study Drug Discontinuation: Nausea: 0 n (%)
TEAE Leading to Dose Reduction, Dose Interrupted or Study Drug Discontinuation: Panic attack: 2 (1.9) n (%)
TEAE Leading to Dose Reduction, Dose Interrupted or Study Drug Discontinuation: Pregnancy: 0 n (%)
TEAE Menorrhagia, subjects %: (0.9) %
TEAE Menorrhagia, subjects n: 1 n
TEAE Migraine, subjects %: (0.9) %
